Laboratory results as given in US20110033946A1, “DETECTION OF SHORT-CHAIN FATTY ACIDS IN BIOLOGICAL SAMPLES” (HEMAQUEST PHARMACEUTICALS, INC., priority 2009, published 2011).
“And” between values parts separate entries of the source, which are not always exact repeats. Identical values can stand only once. Like-named read-outs stand apart in the source and are kept apart here.

How the values were obtained:
[1] = type: physicochemical, human; conditions: for Long-term freezer stability, Mean concentration / Long-term freezer stability, RE % (mean vs nominal): human
Procedure: The following samples were also analyzed either in conjunction with one of the precision and accuracy runs or in one of the additional validation runs. Samples from six lots of control human plasma for specificity. Samples from six lots of control human plasma fortified with internal standard for specificity. Two concentration levels of unextracted QC-samples in triplicate (solvent standards) were analyzed for the evaluation of the recovery of sodium 2,2-dimethylbutyrate and DMV in human plasma. Two levels of QC samples (Low QC and High QC in triplicate) were subjected to three freeze/thaw cycles at approximately −70° C. prior to extraction to evaluate freeze/thaw stability. Two levels of QC samples (Low QC and High QC in triplicate) were placed on the bench top for approximately 17 hours prior to extraction for the evaluation of the bench top stability. Triplicate low QC samples and triplicate high QC samples were stored for one month and three months in a freezer at approximately −70° C., and then extracted and analyzed to evaluate long term stability in human plasma. Two levels of extracted QC samples (Low QC and High QC) were re-analyzed after approximately 71 hours in the autosampler at room temperature to evaluate the extract autosampler stability. Two levels of extracted QC samples (Low QC and High QC) were re-analyzed after approximately 8 hours in the freezer at approximately −20° C. to evaluate the extract freeze stability. Three aliquots of a dilution QC sample diluted 10-fold. Triplicate dilutions of the old stock solution (stored at approximately 4° C.) and new stock solutions prepared at intervals of two weeks and one month. Statistical calculations in the report tables were calculated from unrounded concentration values taken directly from the raw data. The concentration values were rounded for display purposes.
QC-Low and QC-High plasma samples, which had been stored in a freezer at approximately −70° C. for one month and three months, were extracted in triplicate and analyzed. The CV % values for the QC-Low and QC-High stability samples range from 4.0% to 11.1%. To calculate the RE %, the measured mean concentration was compared to the nominal concentration. The RE % values for the QC-Low and QC-High stability samples range from −13.7% to 4.1%. All CV % values and RE % values are within the acceptance criteria (≦15% and ±15% respectively).

[2] = Freeze/thaw cycle stability in rat plasma; type: physicochemical; conditions: three freeze/thaw cycles at approximately −70° C.
Procedure: (§1) For the remaining validation tests, a calibration curve and triplicates QCs at the low, mid and high levels were analyzed with each sample set. The following samples were also analyzed either in conjunction with one of the precision and accuracy runs or in one of the additional validation runs: Samples from six lots of control rat plasma for specificity; Samples from six lots of control rat plasma fortified with internal standard for specificity; Two concentration levels of unextracted QC-samples in triplicate (solvent standards) were analyzed for the evaluation of the recovery of sodium 2,2-dimethylbutyrate and DMV in rat plasma; Two levels of QC samples (Low QC and High QC in triplicate) were subjected to three freeze/thaw cycles at approximately −70° C. prior to extraction to evaluate freeze/thaw stability; Two levels of QC samples (Low QC and High QC in triplicate) were placed on the bench top for approximately 17 hours prior to extraction for the evaluation of the bench top stability; Triplicate low QC samples and triplicate high QC samples were stored for one month and three months in a freezer at approximately −70° C., and then extracted and analyzed to evaluate long term stability in rat plasma; Three aliquots of a dilution QC sample diluted 10-fold.
The stability of sodium 2,2-dimethylbutyrate in rat plasma was evaluated at approximately −70° C. for three cycles using QC-Low and QC-High samples in triplicate. The freeze time was at least 12-24 hours, with a minimum thaw time of one hour. The CV % values for the QC-Low and QC-High stability samples are 13.3% and 4.6%, respectively. To calculate the RE %, the measured mean concentration was compared to the nominal concentration.

[3] = type: physicochemical, rat; conditions: for Mean concentration, QC-Low / RE %, QC-Low / Measured concentration, QC-Low: nominal 0.60 μg/mL; for Measured concentration, QC-Low / Measured concentration, QC-High: individual replicates; for Mean concentration, QC-High / RE %, QC-High / Measured concentration, QC-High: nominal 40.0 μg/mL; for Long-term freezer stability, RE %: rat, 0.6 μg/mL
Procedure: as §1
QC-Low and QC-High plasma samples, which had been stored in a freezer at approximately −70° C. for one month and three months (98 days), were extracted in triplicate and analyzed. At the one month interval, the RE % was −24.1% for the QC-Low level. This may have been an anomaly since at the QC-Low level for the three month interval, the RE % was 4.1%. All CV % values and RE % values at the 98 day interval were within the acceptance criteria (≦15% and ±15% respectively). Therefore, sodium 2,2-dimethylbutyrate can be considered stable in rat plasma at approximately −70° C. for at least […].

[4] = Stock solution stability at nominal 4° C. (Example 5); type: physicochemical; conditions: nominal temperature of 4° C.
Procedure: In method I, the mobile phase of liquid chromatography was run on 0.1% formic acid in acetonitrile, and the elution volume was 10 ul. In method II, the mobile phase was run in 0.1% formic acid in methanol/water (98/2, volume to volume), and the elution volume was 5 ul.

[5] = rat plasma, approximately −70° C., 1 Month Interval
[6] = rat plasma, approximately −70° C., 3 Month Interval

Time stable in freezer ([1]; human plasma, approximately −70° C.): up to three months
Long-term freezer stability, Mean concentration ([1]; 1 month, 0.6 μg/mL): 0.552 µg/mL
Long-term freezer stability, RE % (mean vs nominal) ([1]; 1 month, 0.6 μg/mL): −7.9%
Long-term freezer stability, Mean concentration ([1]; 1 month, 40 μg/mL): 38.2 µg/mL
Long-term freezer stability, RE % (mean vs nominal) ([1]; 1 month, 40 μg/mL): −4.6%
Long-term freezer stability, Mean concentration ([1]; 3 months, 0.6 μg/mL): 0.624 µg/mL
Long-term freezer stability, RE % (mean vs nominal) ([1]; 3 months, 0.6 μg/mL): 4.1%
Long-term freezer stability, Mean concentration ([1]; 3 months, 40 μg/mL): 34.5 µg/mL
Long-term freezer stability, RE % (mean vs nominal) ([1]; 3 months, 40 μg/mL): −13.7%
Stability after freeze/thaw cycles [2]: stable
Freeze/thaw cycle stability, Mean concentration ([2]; QC-High, nominal 40.0 μg/mL): 41.2 µg/mL
Freeze/thaw cycle stability, RE % (mean vs nominal) ([2]; QC-High, nominal 40.0 μg/mL): 3.1%
Freeze/thaw cycle stability, concentration found (replicate) ([2]; QC-High, nominal 40.0 μg/mL): 41.7 µg/mL and 39.2 µg/mL and 42.9 µg/mL
Freeze/thaw cycle stability, Mean concentration ([2]; QC-Low, nominal 0.60 μg/mL): 0.575 µg/mL
Freeze/thaw cycle stability, RE % (mean vs nominal) ([2]; QC-Low, nominal 0.60 μg/mL): −4.1%
Mean concentration, QC-Low [3, 5]: 456 ng/mL
RE %, QC-Low [3, 5]: −24.1%
Mean concentration, QC-High [3, 5]: 34700 ng/mL
RE %, QC-High [3, 5]: −13.3%
Measured concentration, QC-High [3, 5]: 35.4 µg/mL and 34.3 µg/mL and 34.4 µg/mL
Mean concentration, QC-Low [3, 6]: 620 ng/mL
RE %, QC-Low [3, 6]: 4.1%
Measured concentration, QC-Low [3, 6]: 0.663 μg/mL and 0.605 μg/mL (2×)
Mean concentration, QC-High [3, 6]: 37200 ng/mL
RE %, QC-High [3, 6]: −7.1%
Measured concentration, QC-High [3, 6]: 38.0 μg/mL (2×) and 35.5 μg/mL
Time stable in freezer ([3]; rat plasma, approximately −70° C.): at least 99 days
Long-term freezer stability, RE % ([3]; 1 month): −24.1%
Long-term freezer stability, RE % ([3]; 98 days): 4.1%
Time stock solutions are stable [4]: at least 115 days
SMILES: CCC(C)(C)C(=O)[O-].[Na+] [Sodium 2,2-Dimethylbutyrate]
Freeze/thaw cycle stability, concentration found (replicate) ([2]; QC-Low, nominal 0.60 μg/mL): 0.491 µg/mL and 0.595 µg/mL and 0.640 µg/mL
Measured concentration, QC-Low [3, 5]: 0.410 µg/mL and 0.484 µg/mL and 0.473 µg/mL
